The values below come from US6432960B1, “Squarate derivatives of dihydropyridine NPY antagonists” (Bristol-Myers Squibb Company, priority 2000, dated 2002).

One series deals with T1, NPY Y1 receptors (Homo sapiens, UniProt P25929).
T1 construct: assayed in SK-N-MC (human neuroplastoma) cell membranes; endogenous in cells; host or cells: SK-N-MC (human neuroblastoma) cell membranes
T1 sequence (P25929 1-384): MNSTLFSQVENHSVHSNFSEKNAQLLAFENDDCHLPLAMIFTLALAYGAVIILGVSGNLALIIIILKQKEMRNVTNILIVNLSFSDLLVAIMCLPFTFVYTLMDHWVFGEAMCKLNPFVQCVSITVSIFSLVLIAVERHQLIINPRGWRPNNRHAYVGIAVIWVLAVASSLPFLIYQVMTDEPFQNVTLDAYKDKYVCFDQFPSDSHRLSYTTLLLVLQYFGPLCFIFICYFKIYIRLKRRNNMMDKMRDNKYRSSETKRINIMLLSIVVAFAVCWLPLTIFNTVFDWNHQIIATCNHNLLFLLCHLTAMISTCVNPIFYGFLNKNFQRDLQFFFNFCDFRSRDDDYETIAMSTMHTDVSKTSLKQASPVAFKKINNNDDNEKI
In words: Binding affinity at NPY Y1 receptors in SK-N-MC cell membranes, iodine-125-labeled I-PYY radioligand. As to conditions: SK-N-MC (human neuroblastoma) cell membranes; 125I-PYY radioligand. On the procedure:
This pharmacologic activity is assayed in SK-N-MC (human neuroblastoma) cell membranes using iodine-125-labeled I-PYY as a radioligand. […] These types of dihydropyridines have significant affinity for α1-adrenergic receptors and/or Ca^++ channels.
The following examples set forth the process for producing various squarate derivatives of the dihydropyridine. The binding affinities were determined at NPY Y1 receptors. The pharmacologic activity was assayed in SK-N-MC (human neuroblastoma) cell membranes using iodine-125-labeled 1-PYY as ratio ligand. Examples 1 and 2 are directed to the production of the intermediates. Examples 3-6 are directed to the process of producing the squarate derivatives.
The compounds of Examples 1-6 were tested for binding affinity at NPY Y1 receptors. The pharmacologic activity was assayed in SK-N-MC (human neuroplastoma) cell membranes using iodine-125 labeled I-PYY as a radioligand.

`CCOc1c(Nc2cccc(C3C(C(=O)OC)=C(C)NC(C)=C3C(=O)OC)c2)c(=O)c1=O` [Example 1, 4-[3-[(2-Ethoxy-3,4-dioxo-1-cyclobuten-1-yl)amino]phenyl]-1,4-dihydro-2,6-dimethyl-3,5-pyridinedicarboxylic Acid, Dimethyl Ester] yielded a melting point of 249 to 252 °C. Also, the IC50 on NPY Y1 receptors was more than 1000 nM.

`CCOc1c(Nc2cc(C3C(C(=O)OC)=C(C)NC(C)=C3C(=O)OC)ccc2F)c(=O)c1=O` [Example 2, 4-[3-[(2-Ethoxy-3,4-dioxo-1cyclobuten-1-yl)amino]-4-fluorophenyl]-1,4-dihydro-2,6-dimethyl-3,5-pyridinedicarboxylic Acid, Dimethyl Ester] returned a melting point of 203 to 205 °C. The compound further had an IC50 on NPY Y1 receptors of more than 1000 nM.

`COC(=O)C1=C(C)NC(C)=C(C(=O)OC)C1c1cccc(Nc2c(NCCCN3CCC(c4cccc(OC)c4)CC3)c(=O)c2=O)c1` [Example 3, 1,4-Dihydro-4-[3-[[2-[[3-[4-(3-methoxyphenyl)-1-piperidinyl]propyl]amino]-3,4-dioxo-1-cyclobuten-1-yl]amino]phenyl]-2,3-dimethyl-3,5-pyridinedicarboxylic Acid, Dimethyl Ester]: the IC50 on NPY Y1 receptors worked out at 24.6 nM.

On to `COC(=O)C1=C(C)NC(C)=C(C(=O)OC)C1c1ccc(F)c(Nc2c(NCCCN3CCC(c4cccc(OC)c4)CC3)c(=O)c2=O)c1` [Example 4, 4-[4-Fluoro-3-[[2-[[3-[4-(3-methoxyphenyl)-1-piperidinyl]propyl]amino]-3,4-dioxo-1-cyclobuten-1-yl]amino]phenyl]-1,4-dihydro-2,6-dimethyl-3,5-pyridinedicarboxylic Acid, Dimethyl Ester], for which the melting point was 205 to 207 °C. Besides, the IC50 at NPY Y1 receptors amounted to 65.8 nM.

In turn, `COC(=O)C1=C(C)NC(C)=C(C(=O)OC)C1c1cccc(Nc2c(NCCCN3CCN(C4CCCCC4)CC3)c(=O)c2=O)c1` [Example 5, 4-[3-[[2-[[3-(4-cyclohexyl-1-piperazinyl)propyl]amino]-3,4-dioxo-1-cyclobuten-1-yl]amino]phenyl]-1,4-dihydro-2,6-dimethyl-3,5-pyridinedicarboxylic Acid, Dimethyl Ester] registered a melting point of 210 to 212 °C. For the same compound, the IC50 at NPY Y1 receptors amounted to 140 nM.

Turning to `COC(=O)C1=C(C)NC(C)=C(C(=O)OC)C1c1ccc(F)c(Nc2c(NCCCN3CCN(C4CCCCC4)CC3)c(=O)c2=O)c1` [Example 6, 4-[3-[[2-[[3-(4-cyclohexyl-1-piperazinyl)propyl]amino]-3,4-dioxo-1-cyclobuten-1-yl]amino]-4-fluorophenyl]-1,4-dihydro-2,6-dimethyl-3,5-pyridinedicarboxylic Acid, Dimethyl Ester], the melting point fell in the range of 229 to 230 °C. This compound had an IC50 at NPY Y1 receptors of 950 nM.

A word on the melting point: it is the temperature of the solid-liquid transition. As usually defined, the IC50 is the concentration needed to halve the response being measured. Lower therefore signals higher potency.
